{"source": "patent US8071629B2", "about": "“2-pyridinylcycloalkylcarboxamide derivatives as fungicides” (Bayer Cropscience AG, priority 2005, dated 2011)", "tested_on": "Sphaerotheca fuliginea", "assay": "In vivo test on Sphaerotheca fuliginea (powdery mildew)", "conditions": "gherkin plants, preventive spray 24 h before contamination, dose 600 g/ha, grading 13 days after contamination vs control plants", "protocol": "The active ingredients tested are prepared by homogenization in a mixture of DMSO (dimethylsulfoxide)/acetone/tween/water. This suspension is then diluted with water to obtain the desired active material concentration.\nGherkin plants (Vert petit de Paris variety) in starter cups, sown on a 50/50 peat soil-pozzolana substrate and grown at 20° C./23° C., are treated at cotyledons stage by spraying with the aqueous suspension described above. Plants, used as controls, are treated with an aqueous solution not containing the active material.\nAfter 24 hours, the plants are contaminated by spraying them with an aqueous suspension of Sphaerotheca fuliginea spores (100 000 spores per ml). The spores are collected from a contaminated plants. The contaminated gerkhin plants are incubated at about 20° C./25° C. and at 60/70% relative humidity.\nGrading (% of efficacy) is carried out 13 days after the contamination, in comparison with the control plants."}
{"smiles": "Cn1cc(C(=O)N[C@@H]2CCCC[C@@H]2c2ncc(Cl)cc2Cl)c(C(F)F)n1", "note": "(relative stereo) [Compound A-2, N-{2-[3,5-dichloro-2-pyridinyl]cis-cyclohexyl}1-methyl-3-(difluoromethyl)-1H-pyrazole-4-carboxamide]", "values": [{"measurement": "protection, % of efficacy (good, at least 70%)", "result": "at least 70%"}]}
